Laboratory results as given in patent US9895363B2, “Methods for modulating function of proliferating cell nuclear antigen (PCNA) and treating cancer with PCNA-targeting compounds” (University of Cincinnati, priority 2010, dated 2018).

Biological target: T1, p21Waf1/Cip1 and PCNA (Homo sapiens, UniProt P12004)
T1 construct: endogenous in cells; host or cells: PC-3, LNCaP
Experiment: Association of p21Waf1/Cip1 to PCNA (immunoprecipitation)
Type: cell-based
Details: Pc-3 and LNCaP, 0.5 μM, 8 H; FIG. 13
Experimental: Chromatin-associated trimeric PCNA executes its function through numerous partner proteins, including p21Waf1/Cip1. To validate that treatment with PCNA-I1 reduces function of PCNA, the binding of p21Waf1/Cip1 to PCNA was investigated. Specifically, Pc-3 and LNCaP cells were treated with PCNA-I1 (0.5 μM) for 8 H and lysed in buffer B as previously discussed. Chromatin-associated protein was extracted in buffer D containing 0.42 M NaCl. The chromatin-associated protein was precipitated with the antibody to PCNA, and was resolved in SDS-PAGE, and probed with antibodies to p21Waf1/Cip1 and PCNA.

T1 sequence (P12004 whole entry): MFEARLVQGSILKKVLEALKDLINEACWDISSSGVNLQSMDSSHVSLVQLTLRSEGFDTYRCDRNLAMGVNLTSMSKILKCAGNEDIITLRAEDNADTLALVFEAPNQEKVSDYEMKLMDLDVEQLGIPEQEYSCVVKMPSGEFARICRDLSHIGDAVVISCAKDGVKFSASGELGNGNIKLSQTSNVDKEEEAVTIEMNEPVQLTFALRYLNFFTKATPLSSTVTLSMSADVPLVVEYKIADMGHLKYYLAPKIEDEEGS

SMILES: Cc1ccsc1C(=O)N/N=C/c1ccc2ccccc2c1O [PCNA-I1]
- Level of chromatin-associated PCNA and p21Waf1/Cip1: reduced the level of PCNA and p21Waf1/Cip1
